Laboratory results from patent US20230286958A1, “PLASMA KALLIKREIN INHIBITORS” (Merck Sharp & Dohme LLC, priority 2020, published 2023).
pIC50: −log10 of the molar value.

Experiments:
[1] = target: Human plasma kallikrein (Homo sapiens (Human), UniProt P03952); assay: Kallikrein Assay (fluorogenic substrate Acetyl-K-P-R-AFC); format: biochemical; details: Plasma Kallikrein (PKal)
In short: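 Ki is derived from IC50 with the Cheng-Prusoff equation, and IC50 from the inflection point of a four-parameter logistic curve. The rate of AFC release is read with 0.5 nM purified enzyme and […] substrate at room temperature or 37 °C.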

[2] = target: human Factor XIa (Homo sapiens (Human), UniProt P03951); assay: Factor XIa Assay (fluorogenic substrate GPR-AFC); format: biochemical; details: Factor XIa (FXIa)
Sequence of human Factor XIa (P03951 388-625 limits assumed): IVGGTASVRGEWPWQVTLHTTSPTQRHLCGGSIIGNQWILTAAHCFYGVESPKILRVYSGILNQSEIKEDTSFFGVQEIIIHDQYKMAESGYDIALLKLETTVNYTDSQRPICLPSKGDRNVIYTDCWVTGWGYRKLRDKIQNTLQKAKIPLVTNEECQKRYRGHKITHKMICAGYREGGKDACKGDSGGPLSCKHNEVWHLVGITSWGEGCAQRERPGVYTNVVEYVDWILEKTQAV
Sequence of human Factor XIa (P03951 19-387 partner limits assumed): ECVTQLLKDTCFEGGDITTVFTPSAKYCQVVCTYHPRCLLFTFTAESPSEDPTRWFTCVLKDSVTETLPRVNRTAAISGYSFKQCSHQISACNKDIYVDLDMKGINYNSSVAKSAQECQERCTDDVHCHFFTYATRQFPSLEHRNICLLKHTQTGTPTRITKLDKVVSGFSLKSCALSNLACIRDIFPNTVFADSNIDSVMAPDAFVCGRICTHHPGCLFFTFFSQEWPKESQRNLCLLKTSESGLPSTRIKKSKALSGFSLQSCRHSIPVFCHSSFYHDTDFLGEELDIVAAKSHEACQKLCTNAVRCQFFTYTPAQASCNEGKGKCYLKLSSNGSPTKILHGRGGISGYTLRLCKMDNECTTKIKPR

Sequence of Human plasma kallikrein (P03952 391-638): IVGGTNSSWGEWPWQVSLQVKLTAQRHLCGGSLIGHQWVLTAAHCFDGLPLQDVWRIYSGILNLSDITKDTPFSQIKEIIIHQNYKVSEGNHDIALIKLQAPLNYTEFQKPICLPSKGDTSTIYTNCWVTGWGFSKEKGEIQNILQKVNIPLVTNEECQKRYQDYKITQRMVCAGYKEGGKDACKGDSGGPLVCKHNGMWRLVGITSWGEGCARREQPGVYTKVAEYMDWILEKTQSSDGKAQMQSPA
Sequence of Human plasma kallikrein (P03952 20-390 partner): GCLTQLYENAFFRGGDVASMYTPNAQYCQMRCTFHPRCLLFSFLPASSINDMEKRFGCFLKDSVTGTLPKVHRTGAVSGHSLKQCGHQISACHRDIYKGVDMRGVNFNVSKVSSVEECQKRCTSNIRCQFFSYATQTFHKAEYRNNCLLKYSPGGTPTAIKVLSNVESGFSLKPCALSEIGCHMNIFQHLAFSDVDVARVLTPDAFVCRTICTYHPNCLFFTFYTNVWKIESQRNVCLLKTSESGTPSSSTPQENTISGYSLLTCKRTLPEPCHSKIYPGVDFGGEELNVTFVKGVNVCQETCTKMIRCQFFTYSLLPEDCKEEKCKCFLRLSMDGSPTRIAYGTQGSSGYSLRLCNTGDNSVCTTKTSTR

pIC50 [1] | pIC50 [2] | SMILES
9.00 | 6.45 | Cc1cc(C(C)n2cc(NC(=O)c3nc(-c4c(C(F)F)ccc(Cl)c4F)cnc3C(C)O)cn2)cnc1N1C[C@H]2C[C@H]2C1=O (single isomer, unassigned) [Example 212, 6-(3-Chloro-6-(difluoromethyl)-2-fluorophenyl)-3-((S or R)-1-hydroxyethyl)-N-(1-((R or S)-1-(5-methyl-6-((1R,5S)-2-oxo-3-azabicyclo[3.1.0]hexan-3-yl)pyridin-3-yl)ethyl)-1H-pyrazol-4-yl)pyrazine-2-carboxamide]
8.06 | 5.46 | Cc1ncc(-c2c(C(F)F)ccc(Cl)c2F)nc1C(=O)Nc1cnn(C(CO)c2ccc(N3CC4CC4C3=O)nc2)c1 (single isomer, unassigned) [Example 162, 6-(3-chloro-6-(difluoromethyl)-2-fluorophenyl)-N-(1-((S or R)-2-hydroxy-1-(6-((1S,5R or 1R,5S)-2-oxo-3-azabicyclo[3.1.0]hexan-3-yl)pyridin-3-yl)ethyl)-1H-pyrazol-4-yl)-3-methylpyrazine-2-carboxamide]
8.31 | 5.72 | Cc1cc(N2C[C@H]3C[C@H]3C2=O)ncc1Cn1cc(NC(=O)c2cncc(-c3c(C(F)F)ccc(Cl)c3F)n2)cn1 [Example 57, 6-(3-Chloro-6-(difluoromethyl)-2-fluorophenyl)-N-(1-((4-methyl-6-((1R,5S)-2-oxo-3-azabicyclo[3.1.0]hexan-3-yl)pyridin-3-yl)methyl)-1H-pyrazol-4-yl)pyrazine-2-carboxamide]
8.37 | 5.25 | Cc1cc(Cn2ncc(NC(=O)c3nc(-c4c(C(F)F)ccc(Cl)c4F)cnc3C)n2)cnc1N1C[C@H]2C[C@H]2C1=O [Example 187, 6-(3-Chloro-6-(difluoromethyl)-2-fluorophenyl)-3-methyl-N-(2-((5-methyl-6-((1R,5S)-2-oxo-3-azabicyclo[3.1.0]hexan-3-yl)pyridin-3-yl)methyl)-2H-1,2,3-triazol-4-yl)pyrazine-2-carboxamide]
8.82 | 6.59 | Cc1cc(C(C)n2cc(NC(=O)c3cc(-c4c(C(F)F)ccc(Cl)c4F)c[n+]([O-])c3)cn2)cnc1N1C[C@H]2C[C@H]2C1=O (single isomer, unassigned) [Example 107, 5-(3-Chloro-6-(difluoromethyl)-2-fluorophenyl)-N-(1-((R or S)-1-(5-methyl-6-((1R,5S)-2-oxo-3-azabicyclo[3.1.0]hexan-3-yl)pyridin-3-yl)ethyl)-1H-pyrazol-4-yl)-1-(l1-oxidanyl)-114-pyridine-3-carboxamide]
9.30 | 7.24 | Cc1nc(N2C[C@H]3C[C@H]3C2=O)ncc1C(C)n1cc(NC(=O)c2nc(-c3c(C(F)F)ccc(Cl)c3F)cc(=O)n2C)cn1 (single isomer, unassigned) [Example 79, 4-(3-Chloro-6-(difluoromethyl)-2-fluorophenyl)-1-methyl-N-(1-((S or R)-1-(4-methyl-2-((1R,5S)-2-oxo-3-azabicyclo[3.1.0]hexan-3-yl)pyrimidin-5-yl)ethyl)-1H-pyrazol-4-yl)-6-oxo-1,6-dihydropyrimidine-2-carboxamide]
9.70 | 7.28 | Cc1cc(Cn2cc(NC(=O)c3nc(-c4c(C(F)F)ccc(Cl)c4F)cnc3C)cn2)cnc1N1C[C@H]2C[C@H]2C1=O [Example 41, 6-(3-Chloro-6-(difluoromethyl)-2-fluorophenyl)-3-methyl-N-(1-((5-methyl-6-((1R,5S)-2-oxo-3-azabicyclo[3.1.0]hexan-3-yl)pyridin-3-yl)methyl)-1H-pyrazol-4-yl)pyrazine-2-carboxamide]
7.68 | 5.24 | Cc1cc(N2C[C@H]3C[C@H]3C2=O)nnc1Cn1cc(NC(=O)c2nc(-c3c(C(F)F)ccc(Cl)c3F)cnc2C)cn1 [Example 84, 6-(3-Chloro-6-(difluoromethyl)-2-fluorophenyl)-3-methyl-N-(1-((4-methyl-6-((1R,5S)-2-oxo-3-azabicyclo[3.1.0]hexan-3-yl)pyridazin-3-yl)methyl)-1H-pyrazol-4-yl)pyrazine-2-carboxamide]
8.62 | 5.50 | Cc1ncc(-c2c(C(F)F)ccc(Cl)c2F)nc1C(=O)Nc1cn(Cc2cnc(N3C[C@H]4C[C@H]4C3=O)c(C)n2)nn1 [Example 185, 6-(3-Chloro-6-(difluoromethyl)-2-fluorophenyl)-3-methyl-N-(1-((6-methyl-5-((1R,5S)-2-oxo-3-azabicyclo[3.1.0]hexan-3-yl)pyrazin-2-yl)methyl)-1H-1,2,3-triazol-4-yl)pyrazine-2-carboxamide]
8.66 | 6.13 | Cc1ncc(-c2c(C(F)F)ccc(Cl)c2F)nc1C(=O)Nc1cnn(C(C)c2cnc(N3C[C@H]4C[C@H]4C3=O)c3c2OCO3)c1 (single isomer, unassigned) [Example 253, 6-(3-Chloro-6-(difluoromethyl)-2-fluorophenyl)-3-methyl-N-(1-((S or R)-1-(4-((1R,5S)-2-oxo-3-azabicyclo[3.1.0]hexan-3-yl)-[1,3]dioxolo[4,5-c]pyridin-7-yl)ethyl)-IH-pyrazol-4-yl)pyrazine-2-carboxamide]
9.15 | 6.24 | [2H]C([2H])(O)c1ncc(-c2c(C(F)F)ccc(Cl)c2F)nc1C(=O)Nc1cnn([C@@H](C)c2cnc(N3C[C@H]4C[C@H]4C3=O)nc2)c1 [Example 182, 6-(3-Chloro-6-(difluoromethyl)-2-fluorophenyl)-3-(hydroxymethyl-d2)-N-(1-((S)-1-(2-((1R,5S)-2-oxo-3-azabicyclo[3.1.0]hexan-3-yl)pyrimidin-5-yl)ethyl)-1H-pyrazol-4-yl)pyrazine-2-carboxamide]
8.85 | 6.80 | CC(O)c1ncc(-c2c(C(F)F)ccc(Cl)c2F)nc1C(=O)Nc1cnn(Cc2cnc(N3C[C@H]4C[C@H]4C3=O)c3c2OCO3)c1 (single isomer, unassigned) [Example 254, 6-(3-Chloro-6-(difluoromethyl)-2-fluorophenyl)-3-((R or S)-1-hydroxyethyl)-N-(1-((4-((1R,5S)-2-oxo-3-azabicyclo[3.1.0]hexan-3-yl)-[1,3]dioxolo[4,5-c]pyridin-7-yl)methyl)-1H-pyrazol-4-yl)pyrazine-2-carboxamide]
8.89 | 6.18 | Cc1ncc(-c2c(C(F)F)ccc(Cl)c2F)nc1C(=O)Nc1cnn([C@@H](C)c2cnc(N3C[C@H]4C[C@H]4C3=O)c(N)c2)c1 [Example 189]
7.43 | < 5.00 | C[C@@H](c1cnc(N2C[C@H]3C[C@H]3C2=O)nc1)n1cc(NC(=O)c2nc(-c3c(C(F)F)ccc(Cl)c3F)cnc2C(C)(C)O)cn1 [Example 181, 6-(3-Chloro-6-(difluoromethyl)-2-fluorophenyl)-3-(2-hydroxypropan-2-yl)-N-(1-((S)-1-(2-((1R,5S)-2-oxo-3-azabicyclo[3.1.0]hexan-3-yl)pyrimidin-5-yl)ethyl)-1H-pyrazol-4-yl)pyrazine-2-carboxamide]
7.76 | < 5.00 | CC(c1ccc(N2CC3CC3C2=O)nc1)n1cc(NC(=O)c2cncc(-c3c(C(F)F)ccc(Cl)c3F)n2)cn1 (single isomer, unassigned) [Example 11, 6-(3-Chloro-6-(difluoromethyl)-2-fluorophenyl)-N-(1-((R or S)-1-(6-((1R,5S or 1S,5R)-2-oxo-3-azabicyclo[3.1.0]hexan-3-yl)pyridin-3-yl)ethyl)-1H-pyrazol-4-yl)pyrazine-2-carboxamide]
